Assay results taken from the CheMixHub ionic liquid set.
Several values for one entry are separate records, joined by “and”; a condition that tells them apart may be missing. Equal entries are not always repeated.

Experiment: xn = mol fraction of the nth substance listed

OCC(F)(F)F + CCCC[n+]1ccn(C)c1.F[B-](F)(F)F
viscosity [mPa·s], 101 kPa
Details | x1 = 0.3913 | x1 = 0.5788 | x1 = 0.7238 | x1 = 0.8247 | x1 = 0.9013 | x1 = 0.9587 | x1 = 1
278.15 K | 42.31 | 15.82 | 7.33 | 4.71 | 3.71 | 3.42 | 3.28
283.15 K | 34.09 | 13.39 | 6.37 | 4.13 | 3.25 | 2.97 | 2.81
288.15 K | 27.93 | 11.45 | 5.59 | 3.66 | 2.88 | 2.6 | 2.42
293.15 K | 23.21 | 9.89 | 4.95 | 3.27 | 2.56 | 2.29 | 2.11
298.15 K | 19.52 | 8.63 | 4.41 | 2.93 | 2.3 | 2.03 | 1.84
303.15 K | 16.61 | 7.59 | 3.96 | 2.65 | 2.07 | 1.81 | 1.62
308.15 K | 14.28 | 6.72 | 3.57 | 2.41 | 1.88 | 1.62 | 1.43
313.15 K | 12.39 | 6 | 3.25 | 2.21 | 1.71 | 1.46 | 1.27
318.15 K | 10.84 | 5.39 | 2.97 | 2.02 | 1.56 | 1.33 | 1.13
323.15 K | 9.56 | 4.87 | 2.72 | 1.87 | 1.43 | 1.21 | 1.02
328.15 K | 8.49 | 4.42 | 2.5 | 1.72 | 1.31 | 1.1 | 0.925
333.15 K | 7.59 | 4.03 | 2.31 | 1.59 | 1.21 | 1 | 0.824

CC(=O)[O-].CC[n+]1ccn(C)c1 + OC[C@@H](O)[C@@H](O)[C@H](O)[C@@H](O)CO
Details | viscosity [mPa·s]
313.15 K, 100 kPa, x2 = 0 | 53.4

CCCC[n+]1ccn(C)c1.N#C[S-] + [Br-].[Li+] + CN1CCCC1=O
298.15 K, 101 kPa
Details | viscosity [mPa·s]
x1 = 0.001086, x2 = 0.02623 | 2.384
x1 = 0.001092, x2 = 0.05108 | 3.161
x1 = 0.001138, x2 = 0.07527 | 4.38
x1 = 0.002508, x2 = 0.07516 | 4.412
x1 = 0.002857, x2 = 0.02618 | 2.408
x1 = 0.003083, x2 = 0.05098 | 3.197
x1 = 0.004195, x2 = 0.07504 | 4.452
x1 = 0.004231, x2 = 0.02614 | 2.429
x1 = 0.004315, x2 = 0.05092 | 3.225
x1 = 0.005622, x2 = 0.05085 | 3.261
x1 = 0.005708, x2 = 0.02611 | 2.45
x1 = 0.006129, x2 = 0.07489 | 4.48
x1 = 0.007405, x2 = 0.02606 | 2.464
x1 = 0.007466, x2 = 0.07479 | 4.509
x1 = 0.007731, x2 = 0.05075 | 3.29
x1 = 0.008848, x2 = 0.07469 | 4.531
x1 = 0.008873, x2 = 0.02602 | 2.492
x1 = 0.009097, x2 = 0.05068 | 3.316
x1 = 0.01032, x2 = 0.07458 | 4.563
x1 = 0.01035, x2 = 0.02598 | 2.521
x1 = 0.01065, x2 = 0.0506 | 3.345
x1 = 0.01201, x2 = 0.02594 | 2.555
x1 = 0.01214, x2 = 0.05052 | 3.376
x1 = 0.01216, x2 = 0.07444 | 4.604

CCCO + CC[n+]1ccn(C)c1.COS(=O)(=O)[O-]
101 kPa, x2 = 0
Details | viscosity [mPa·s]
283.15 K | 2.78
293.15 K | 2.18
313.15 K | 1.36
323.15 K | 1.11

C[N+]1(CCOCCOCCOCC[N+]2(C)CCCC2)CCCC1.N#C[N-]C#N.N#C[N-]C#N + CC[n+]1ccn(C)c1.N#C[N-]C#N + O=S(=O)([N-]S(=O)(=O)C(F)(F)F)C(F)(F)F.[Li+]
100 kPa, x1 = 0.252, x2 = 0.6578
Details | electrical conductivity [S/m]
298 K | 0.522
303 K | 0.63
313 K | 0.854
323 K | 1.16
333 K | 1.48
343 K | 1.86

CCCC[n+]1ccn(C)c1.N#C[N-]C#N + CC(=O)[O-].[K+] + O
viscosity [mPa·s], 101 kPa
Details | 298.15 K | 308.15 K | 318.15 K | 323.15 K
x2 = 0.1831, x3 = 0.8019 | 8.2 | 6 | – | –
x2 = 0.1943, x3 = 0.7933 | 10 | 7.2 | 5.4 | 4.815

CCCC[n+]1ccn(C)c1.N#C[S-] + CCCCO
101 kPa
Details | viscosity [mPa·s]
298.15 K, x2 = 0.5596 | 11.2
298.15 K, x2 = 0.6222 | 9.23
298.15 K, x2 = 0.79 | 5.28
298.15 K, x2 = 0.9738 | 2.9
308.15 K, x2 = 0.6834 | 5.8
318.15 K, x2 = 0.0911 | 19
318.15 K, x2 = 0.5596 | 6.55
318.15 K, x2 = 0.6222 | 5.5
318.15 K, x2 = 0.6834 | 4.59
318.15 K, x2 = 0.9738 | 1.81
328.15 K, x2 = 0.4552 | 6.86
328.15 K, x2 = 0.6834 | 3.72
338.15 K, x2 = 0.5596 | 4.19
338.15 K, x2 = 0.6222 | 3.6
348.15 K, x2 = 0.3317 | 5.78
348.15 K, x2 = 0.8975 | 1.34
348.15 K, x2 = 0.9738 | 1

CCCC[n+]1ccn(C)c1.N#C[S-] + CN1CCCC1=O
viscosity [mPa·s], 101 kPa
Details | x1 = 0.0009705 | x1 = 0.001495 | x1 = 0.002117 | x1 = 0.002433 | x1 = 0.003004 | x1 = 0.003507 | x1 = 0.004097 | x1 = 0.00451
288.15 K | 2.139 | 2.145 | 2.153 | 2.158 | 2.163 | 2.166 | 2.172 | 2.178
298.15 K | 1.804 | 1.808 | 1.811 | 1.813 | 1.821 | 1.827 | 1.834 | 1.843
308.15 K | 1.563 | 1.575 | 1.582 | 1.586 | 1.593 | 1.604 | 1.616 | 1.623
318.15 K | 1.295 | 1.305 | 1.311 | 1.317 | 1.322 | 1.327 | 1.337 | 1.349

CC[N+](CC)(CC)CC.[Cl-] + CNCCO
101.3 kPa
Details | viscosity [mPa·s]
293.15 K, x1 = 0.1413 | 23.7
303.15 K, x1 = 0.1114 | 14.3
308.15 K, x1 = 0.09139 | 11.4
313.15 K, x1 = 0.1413 | 10.3
318.15 K, x1 = 0.1413 | 8.78
323.15 K, x1 = 0.1114 | 7.1
323.15 K, x1 = 0.1413 | 7.56
328.15 K, x1 = 0.09139 | 5.45

OC[C@H]1O[C@H](O[C@H]2[C@H](O)[C@@H](O)C(O)O[C@@H]2CO)[C@H](O)[C@@H](O)[C@@H]1O (stereo not given in full) + O + CCCC[n+]1ccn(C)c1.[Cl-]
298.15 K, 101.3 kPa
Details | electrical conductivity
x1 = 0.003591, x3 = 5.29e-06 | 0.00303 S/m
x1 = 0.003591, x3 = 8.39e-06 | 0.00457 S/m
x1 = 0.003591, x3 = 1.182e-05 | 0.00625 S/m
x1 = 0.003591, x3 = 1.516e-05 | 0.00787 S/m
x1 = 0.003591, x3 = 1.84e-05 | 0.00941 S/m
x1 = 0.003591, x3 = 2.179e-05 | 0.011 S/m
x1 = 0.003591, x3 = 2.475e-05 | 0.01239 S/m
x1 = 0.003591, x3 = 2.776e-05 | 0.0138 S/m
x1 = 0.003591, x3 = 3.087e-05 | 0.01519 S/m
x1 = 0.003591, x3 = 3.39e-05 | 0.0165 S/m
x1 = 0.003591, x3 = 3.679e-05 | 0.0179 S/m
x1 = 0.007156, x3 = 7.85e-06 | 0.00369 S/m
x1 = 0.007156, x3 = 1.182e-05 | 0.00532 S/m
x1 = 0.007156, x3 = 1.573e-05 | 0.00691 S/m
x1 = 0.007156, x3 = 1.984e-05 | 0.00855 S/m
x1 = 0.007156, x3 = 2.38e-05 | 0.01011 S/m
x1 = 0.007156, x3 = 2.785e-05 | 0.0117 S/m
x1 = 0.007156, x3 = 3.214e-05 | 0.01336 S/m
x1 = 0.007156, x3 = 3.627e-05 | 0.0149 S/m
x1 = 0.007156, x3 = 4.07e-05 | 0.0166 S/m
x1 = 0.007156, x3 = 4.483e-05 | 0.01815 S/m
x1 = 0.0107, x3 = 7.55e-06 | 0.0031 S/m
x1 = 0.0107, x3 = 1.145e-05 | 0.00447 S/m
x1 = 0.0107, x3 = 1.56e-05 | 0.0059 S/m
x1 = 0.0107, x3 = 1.953e-05 | 0.00725 S/m
x1 = 0.0107, x3 = 2.385e-05 | 0.0087 S/m
x1 = 0.0107, x3 = 2.86e-05 | 0.01028 S/m
x1 = 0.0107, x3 = 3.328e-05 | 0.0118 S/m
x1 = 0.0107, x3 = 3.79e-05 | 0.01332 S/m
x1 = 0.0107, x3 = 4.278e-05 | 0.0149 S/m
x1 = 0.0107, x3 = 4.74e-05 | 0.01635 S/m
x1 = 0.0107, x3 = 5.2e-05 | 0.0178 S/m
x1 = 0.01421, x3 = 1.044e-05 | 0.00364 S/m
x1 = 0.01421, x3 = 1.582e-05 | 0.0052 S/m
x1 = 0.01421, x3 = 2.09e-05 | 0.00666 S/m
x1 = 0.01421, x3 = 2.625e-05 | 0.00817 S/m
x1 = 0.01421, x3 = 3.215e-05 | 0.00982 S/m
x1 = 0.01421, x3 = 3.779e-05 | 0.01136 S/m
x1 = 0.01421, x3 = 4.365e-05 | 0.013 S/m
x1 = 0.01421, x3 = 4.958e-05 | 0.0146 S/m
x1 = 0.01421, x3 = 5.535e-05 | 0.01611 S/m
x1 = 0.0177, x3 = 7.16e-06 | 0.00235 S/m
x1 = 0.0177, x3 = 1.43e-05 | 0.00413 S/m
x1 = 0.0177, x3 = 2.14e-05 | 0.00587 S/m
x1 = 0.0177, x3 = 2.851e-05 | 0.0076 S/m
x1 = 0.0177, x3 = 3.535e-05 | 0.00922 S/m
x1 = 0.0177, x3 = 4.182e-05 | 0.0107 S/m
x1 = 0.0177, x3 = 4.861e-05 | 0.01232 S/m
x1 = 0.0177, x3 = 5.526e-05 | 0.0138 S/m
x1 = 0.0177, x3 = 6.177e-05 | 0.01534 S/m
x1 = 0.0177, x3 = 6.769e-05 | 0.0167 S/m
x1 = 0.0177, x3 = 7.386e-05 | 0.01804 S/m
x1 = 0.02116, x2 = 0.9788 | 0.0134 S/m and 0.0146 S/m and 0.0157 S/m
